Measurements reported in patent publication US12448369B2 (Edgewise Therapeutics, Inc., priority 2023, dated 2025).

Tests used:
[1] = system: Rabbit Psoas myofibrils (skeletal myosin ATPase); assay: Myofibril ATPase assay, rabbit psoas (skeletal) myofibrils; format: biochemical; details: rabbit psoas myofibrils
Outline: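 Myofibrils homogenized in Triton X-100 buffer were assayed in pH 7.0 PIPES with defined Ca2+/EGTA. Myosin-driven ADP formation was coupled to NADH oxidation, with depletion monitored at 340 nm. Each value is the concentration that lowers activity to 75% of vehicle or, for activators, raises it to 125%.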

[2] = biological target: T1, Porcine ventricle myofibrils (ventricular myosin ATPase) (Sus scrofa, UniProt P79293); assay: Myofibril ATPase assay, porcine ventricle myofibrils; format: biochemical, porcine (Yucatan minipigs); details: porcine ventricle myofibrils
T1 construct: Myofibrils from porcine cardiac muscle was isolated from the left ventricle of Yucatan minipigs; tissue Exemplar Genetics; host or cells: left ventricle of Yucatan minipigs, myofibrils prepared in house
Outline: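 In a coupled enzyme format, ADP from myofibril ATPase drives NADH oxidation, monitored kinetically at 340 nm for 75 min using minipig ventricle myofibrils. Effective concentrations giving 25% loss or gain of activity relative to vehicle were calculated from 4-parameter fits.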

[3] = system: Porcine atria myofibrils (atrial myosin ATPase); assay: Myofibril ATPase assay, porcine atria myofibrils; format: biochemical; details: porcine atria myofibrils
Outline: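 Values are Y75 (concentration cutting ATPase activity to 75% of vehicle) or Y125 (raising it to 125%), taken from 4-parameter logistic fits. Rates come from NADH disappearance at 340 nm in a PK/LDH-coupled assay with porcine atria myofibrils.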

[4] = Y75 value (75% activity relative to no compound)

T1 sequence (P79293 whole entry): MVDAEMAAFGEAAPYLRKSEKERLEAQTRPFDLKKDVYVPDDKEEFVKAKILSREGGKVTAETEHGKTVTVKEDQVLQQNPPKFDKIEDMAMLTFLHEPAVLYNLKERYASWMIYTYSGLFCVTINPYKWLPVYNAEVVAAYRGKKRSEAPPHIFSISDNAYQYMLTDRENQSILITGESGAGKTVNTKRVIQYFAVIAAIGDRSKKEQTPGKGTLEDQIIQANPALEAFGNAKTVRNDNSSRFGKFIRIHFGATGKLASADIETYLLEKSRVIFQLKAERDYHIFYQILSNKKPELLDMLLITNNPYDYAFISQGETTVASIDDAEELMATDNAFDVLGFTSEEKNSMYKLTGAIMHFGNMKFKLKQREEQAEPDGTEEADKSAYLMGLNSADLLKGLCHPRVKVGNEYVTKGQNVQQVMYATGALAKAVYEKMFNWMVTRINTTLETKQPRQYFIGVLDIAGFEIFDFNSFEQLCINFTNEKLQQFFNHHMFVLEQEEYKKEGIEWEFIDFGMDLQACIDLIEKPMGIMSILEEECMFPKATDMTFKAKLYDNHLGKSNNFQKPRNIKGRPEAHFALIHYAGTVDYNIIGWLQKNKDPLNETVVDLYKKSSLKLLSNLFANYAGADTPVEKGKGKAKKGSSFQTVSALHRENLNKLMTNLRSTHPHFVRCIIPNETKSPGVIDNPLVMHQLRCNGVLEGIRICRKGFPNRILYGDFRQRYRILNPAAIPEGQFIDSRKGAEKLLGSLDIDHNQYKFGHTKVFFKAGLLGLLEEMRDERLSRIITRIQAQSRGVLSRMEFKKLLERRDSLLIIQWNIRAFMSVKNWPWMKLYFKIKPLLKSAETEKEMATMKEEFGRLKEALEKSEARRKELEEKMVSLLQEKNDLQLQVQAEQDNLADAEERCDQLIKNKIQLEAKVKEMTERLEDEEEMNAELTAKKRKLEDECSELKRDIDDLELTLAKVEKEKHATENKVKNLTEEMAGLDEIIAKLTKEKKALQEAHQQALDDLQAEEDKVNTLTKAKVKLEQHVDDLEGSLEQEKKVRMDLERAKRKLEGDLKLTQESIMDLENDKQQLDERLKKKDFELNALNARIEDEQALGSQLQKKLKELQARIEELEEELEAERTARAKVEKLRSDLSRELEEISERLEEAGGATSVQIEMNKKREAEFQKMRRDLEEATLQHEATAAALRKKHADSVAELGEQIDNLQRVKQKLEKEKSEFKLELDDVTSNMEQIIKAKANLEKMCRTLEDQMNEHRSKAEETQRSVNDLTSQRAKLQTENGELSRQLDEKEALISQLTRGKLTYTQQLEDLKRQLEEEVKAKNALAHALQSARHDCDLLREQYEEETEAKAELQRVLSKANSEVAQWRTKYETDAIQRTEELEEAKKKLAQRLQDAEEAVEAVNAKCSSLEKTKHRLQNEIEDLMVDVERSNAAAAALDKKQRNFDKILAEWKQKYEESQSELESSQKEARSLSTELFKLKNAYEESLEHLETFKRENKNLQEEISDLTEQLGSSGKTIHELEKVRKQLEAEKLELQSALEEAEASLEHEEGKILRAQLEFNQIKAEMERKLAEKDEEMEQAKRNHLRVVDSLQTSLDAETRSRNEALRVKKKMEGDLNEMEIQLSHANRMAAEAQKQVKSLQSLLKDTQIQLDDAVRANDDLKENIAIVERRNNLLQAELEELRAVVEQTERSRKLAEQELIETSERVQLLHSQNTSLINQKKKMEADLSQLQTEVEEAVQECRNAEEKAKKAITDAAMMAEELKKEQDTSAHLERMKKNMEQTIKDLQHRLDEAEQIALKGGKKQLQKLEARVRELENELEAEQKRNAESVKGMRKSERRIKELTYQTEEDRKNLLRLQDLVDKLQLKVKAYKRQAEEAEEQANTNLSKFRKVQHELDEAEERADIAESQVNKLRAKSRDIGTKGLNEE

Compound: C[C@@H](NC(=O)C1(c2cc3c(F)c(F)ccc3[nH]c2=O)CC1)c1ncc(C#N)cn1 (single isomer, unassigned) [compound 2549]
- Skeletal EC25 ([1]; Y75 value (no ‡ mark)): 7.56 µM
- Ventricular EC25 ([2]; Y75 value (no ‡ mark)): 100.00 µM
- Atrial EC25 ([3]; Y75 value (no ‡ mark)): 0.97 µM

Compound: Cc1c(CC(=O)NC(C)c2cnc(C#N)cn2)c(=O)[nH]c2ccc(F)c(F)c12 (stereo in doubt) [compound 1145, (S)—N-(1-(5-cyanopyrazin-2-yl)ethyl)-2-(5,6-difluoro-4-methyl-2-oxo-1,2-dihydroquinolin-3-yl)acetamide]
- Skeletal EC25 ([1]; Y75 value (no ‡ mark)): 0.03 µM
- Ventricular EC25 ([2]; Y75 value (no ‡ mark)): 0.07 µM
- Atrial EC25 ([3]; Y75 value (no ‡ mark)): 0.06 µM

Compound: Cc1nc([C@@H](C)NC(=O)Cc2c(C)c3c(C)nccc3[nH]c2=O)ncc1C#N [compound 478]
- Skeletal EC25 ([1]; Y75 value): 65.26 µM
- Ventricular EC25 ([2]; Y75 value): 33.12 µM
- Atrial EC25 [3, 4]: 5.84 µM

Compound: Cc1c(CC(=O)N[C@H](C)c2ncc(C#N)cc2F)c(=O)[nH]c2cccc(C#N)c12 [compound 1080]
- Skeletal EC25 ([1]; Y75 value (no ‡ mark)): 0.12 µM
- Ventricular EC25 ([2]; Y75 value (no ‡ mark)): 0.36 µM
- Atrial EC25 ([3]; Y75 value (no ‡ mark)): 0.21 µM

Compound: C[C@H](NC(=O)Cc1cc2c(F)nccc2[nH]c1=O)c1ccc(F)cc1F [compound 394]
- Skeletal EC25 ([1]; Y75 value): 0.03 µM
- Ventricular EC25 ([2]; Y75 value): 0.53 µM
- Atrial EC25 [3, 4]: 0.27 µM

Compound: Cc1nccc2[nH]c(=O)c(CC(=O)N[C@@H]3COc4cc(F)cc(F)c43)c(C)c12 (single isomer, unassigned) [compound 288]
- Skeletal EC25 ([1]; Y75 value): 0.02 µM
- Ventricular EC25 ([2]; Y75 value): 0.27 µM
- Atrial EC25 [3, 4]: 0.08 µM

Compound: Cc1nc(C#N)cnc1[C@H](C)NC(=O)C(F)(F)c1c(C)c2c(C)nccc2[nH]c1=O (single isomer, unassigned) [compound 3505]
- Skeletal EC25 ([1]; Y75 value): 4.70 µM
- Ventricular EC25 ([2]; Y75 value): 13.00 µM
- Atrial EC25 [3, 4]: 1.90 µM

Compound: Cc1c(CC(=O)N[C@@H](C)c2ncc(C#N)cc2F)c(=O)[nH]c2ccc(F)c(C#N)c12 [compound 32]
- Skeletal EC25 ([1]; Y75 value (no ‡ mark)): 0.01 µM
- Ventricular EC25 ([2]; Y75 value (no ‡ mark)): 0.04 µM
- Atrial EC25 ([3]; Y75 value (no ‡ mark)): 0.05 µM

Compound: Cc1nccc2[nH]c(=O)c(CC(=O)NC(CO)c3ncccc3F)c(C)c12 (stereo not drawn) [compound 237]
- Skeletal EC25 ([1]; Y75 value): 100.00 µM
- Ventricular EC25 ([2]; Y75 value): 100.00 µM
- Atrial EC25 [3, 4]: 100.00 µM

Compound: O=C(Cc1cc2c(F)c(F)ccc2[nH]c1=O)N[C@H]1COc2ncccc21 (single isomer, unassigned) [compound 64]
- Skeletal EC25 ([1]; Y75 value (no ‡ mark)): 83.26 µM
- Ventricular EC25 ([2]; Y75 value (no ‡ mark)): 100.00 µM
- Atrial EC25 ([3]; Y75 value (no ‡ mark)): 100.00 µM

Compound: Cc1nccc2[nH]c(=O)c(CC(=O)N[C@@H](CO)c3ccccn3)c(C)c12 (single isomer, unassigned) [compound 317]
- Skeletal EC25 ([1]; Y75 value): 100.00 µM
- Ventricular EC25 ([2]; Y75 value): 100.00 µM
- Atrial EC25 [3, 4]: 100.00 µM

Compound: Cc1nccc2[nH]c(=O)c(CC(=O)N[C@@H](CO)Cc3ccccc3)c(C)c12 [compound 496]
- Skeletal EC25 ([1]; Y75 value): 100.00 µM
- Ventricular EC25 ([2]; Y75 value): 100.00 µM
- Atrial EC25 [3, 4]: 100.00 µM

Compound: C[C@@H](NC(=O)Cc1cc2c(C(F)(F)F)c(F)ccc2[nH]c1=O)c1ncc(C#N)cn1 (single isomer, unassigned) [compound 2009]
- Skeletal EC25 ([1]; Y75 value (no ‡ mark)): 2.25 µM
- Ventricular EC25 ([2]; Y75 value (no ‡ mark)): 100.00 µM
- Atrial EC25 ([3]; Y75 value (no ‡ mark)): 100.00 µM

Compound: Cc1cc(C#N)ccc1[C@@H](C)NC(=O)Cc1c(O)c2cc(F)c(F)cc2[nH]c1=O [compound 1088]
- Skeletal EC25 ([1]; Y75 value (no ‡ mark)): 100.00 µM
- Ventricular EC25 ([2]; Y75 value (no ‡ mark)): 100.00 µM
- Atrial EC25 ([3]; Y75 value (no ‡ mark)): 5.78 µM

Compound: Cc1c(CC(=O)N[C@H](C)c2ccc(C#N)cn2)c(=O)[nH]c2ccc(F)c(F)c12 [compound 45]
- Skeletal EC25 ([1]; Y75 value (no ‡ mark)): 0.12 µM
- Ventricular EC25 ([2]; Y75 value (no ‡ mark)): 0.42 µM
- Atrial EC25 ([3]; Y75 value (no ‡ mark)): 0.07 µM

Compound: Cc1c(CC(=O)N[C@@H](C)c2ccc(F)cc2F)c(=O)[nH]c2cnnc(O)c12 [compound 240]
- Skeletal EC25 ([1]; Y75 value): 100.00 µM
- Ventricular EC25 ([2]; Y75 value): 100.00 µM
- Atrial EC25 [3, 4]: 100.00 µM

Compound: C[C@@H](NC(=O)C1(c2cc3c(F)c(F)ccc3[nH]c2=O)CC1)c1cc(C#N)ccn1 (single isomer, unassigned) [compound 2583]
- Skeletal EC25 ([1]; Y75 value (no ‡ mark)): 100.00 µM
- Ventricular EC25 ([2]; Y75 value (no ‡ mark)): 100.00 µM
- Atrial EC25 ([3]; Y75 value (no ‡ mark)): 4.31 µM

Compound: Cc1c(C(F)(F)C(=O)N[C@@H]2COc3cc(C#N)cc(F)c32)c(=O)[nH]c2ccc(F)cc12 (single isomer, unassigned) [compound 2553]
- Skeletal EC25 ([1]; Y75 value (no ‡ mark)): 0.79 µM
- Ventricular EC25 ([2]; Y75 value (no ‡ mark)): 34.88 µM
- Atrial EC25 ([3]; Y75 value (no ‡ mark)): 0.51 µM
